Measured values taken from US5753636A, “Injection solution for intramuscular and subcutaneous administration to animals” (priority 1993, dated 1998).
Where two headings read alike, the source gives them in different places.

Columns and labels:
injection site [1] = details: cited from earlier work
injection site [2] = experiment: Local tolerability / irritation at the injection site, general statements; details: applicant's statement
injection site [3] = details: in vivo
[4] = statement on known products, solvents or bases

Q: With `CC(O)CO` (centres unmarked) [1,2-propanediol] as the compound, how does the “local tolerability / irritation” value (injection site [1]; [4]) read?
A: highly irritant and have haemolytic effects

Q: Which “local tolerability / irritation” value (injection site [2]) does the source give for `N=C(N)NCCC[C@H](N)C(=O)O` [L-arginine] here?
A: excellent local tolerability

Q: Which “local tolerability / irritation” value (injection site [2]) does the source give for `NCCCC[C@H](N)C(=O)O` [L-lysine] here?
A: excellent local tolerability

Q: For `NCCC[C@H](N)C(=O)O` [L-ornithine], which “local tolerability / irritation” value (injection site [2]) is on record?
A: excellent local tolerability

Q: For `[O]=[Mg]` [MgO, Magnesium oxide], which “local tolerability / irritation” value (injection site [3]) is on record?
A: irritant for tissue

Q: Which “local tolerability / irritation” value (injection site [1]; in vivo) does the source give for `OCCNCCO` [diethanolamine] here?
A: very irritant

Q: For `NCCO` [monoethanolamine], which “local tolerability / irritation” value (injection site [1]; [4]) is on record?
A: very irritant

Q: Which “local tolerability / irritation” value (injection site [1]; in vivo) does the source give for polyethylene glycol here?
A: highly irritant and have haemolytic effects
